Assays:
human DPP1 enzyme = human DPP1 enzyme (Homo sapiens (Human), UniProt P53634); experiment: Human DPP1 enzyme IC50 assay; type: biochemical; settings: recombinant human DPP1, H-Gly-Arg-AMC substrate 400 μM
In short: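 Fluorogenic readout (350/450 nm, every 5 min over 90 min, 37°C) of H-Gly-Arg-AMC cleavage at 400 μM final substrate. Compounds met activated DPP1 first for a 10-min 37°C pre-incubation in MES buffer pH 6.0 with DTT, 1% DMSO final. Four-parameter sigmoidal fit gave IC50.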

active mouse DPP1 enzyme = active mouse DPP1 enzyme (Mus musculus (Mouse), UniProt P97821); experiment: Mouse DPP1 enzyme IC50 assay; type: biochemical; settings: active mouse DPP1, H-Gly-Arg-AMC substrate 400 μM
Chain of active mouse DPP1 enzyme (P97821 25-134): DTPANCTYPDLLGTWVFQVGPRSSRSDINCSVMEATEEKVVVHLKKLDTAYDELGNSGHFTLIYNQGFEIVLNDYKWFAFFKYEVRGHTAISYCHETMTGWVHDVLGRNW
Chain of active mouse DPP1 enzyme (P97821 231-393): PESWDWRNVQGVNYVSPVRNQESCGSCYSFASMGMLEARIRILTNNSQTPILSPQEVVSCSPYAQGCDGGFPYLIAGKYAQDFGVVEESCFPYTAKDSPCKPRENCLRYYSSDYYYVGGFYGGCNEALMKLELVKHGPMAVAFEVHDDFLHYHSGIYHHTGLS
Chain of active mouse DPP1 enzyme (P97821 394-462): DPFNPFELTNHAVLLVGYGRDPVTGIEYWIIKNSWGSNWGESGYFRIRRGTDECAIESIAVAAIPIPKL
Procedure: 25 μL of compound in Assay Buffer plus 5% DMSO was first added to 50 μL of active mouse DPP1 enzyme at a concentration of 62.5 pg/μL and allowed to pre-incubate for 10 minutes at 37° C. after which 50 μL of 1000 μM H-Gly-Arg-AMC substrate (Bachem; St. Torrance, CA) was added, giving final substrate concentration of 400 μM and a final DMSO concentration of 1%. Substrate cleavage was measured for 90 minutes at 37° C., with fluorescence at Excitation/Emission 350/450 nm measured every 5 minutes. DPP1 concentration was interpolated based on its activity relative to a standard curve of recombinant active mouse DPP1 enzyme. IC50 values for each compound were calculated via the XLFit (IDBS Version 5.3.1.3) Add-On to Microsoft Excel using the four parameter fit equation y=(A+((B-A)/(1+((C/x)^D)))), which appears as equation number 205 (4 Parameter Logistic Model or Sigmoidal Dose-Response Model) in XLFit. Default constraints were used for each Parameter.

DPP1 in HL-60 cells = DPP1 in HL-60 cells (Homo sapiens (Human), UniProt P53634); experiment: DPP1 Cell IC50 assay; type: cell-based; settings: H-Gly-Phe-AFC substrate, 60 min pre-incubation
Chain of DPP1 in HL-60 cells (P53634 25-134): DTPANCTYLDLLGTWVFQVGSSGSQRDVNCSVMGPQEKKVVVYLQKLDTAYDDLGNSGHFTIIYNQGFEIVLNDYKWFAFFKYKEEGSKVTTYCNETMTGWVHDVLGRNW
Chain of DPP1 in HL-60 cells (P53634 231-394): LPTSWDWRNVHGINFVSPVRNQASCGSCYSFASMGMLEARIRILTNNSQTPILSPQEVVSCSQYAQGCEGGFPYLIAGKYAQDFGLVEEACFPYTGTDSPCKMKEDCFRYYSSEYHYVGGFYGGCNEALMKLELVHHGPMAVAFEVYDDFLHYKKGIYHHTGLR
Chain of DPP1 in HL-60 cells (P53634 395-463): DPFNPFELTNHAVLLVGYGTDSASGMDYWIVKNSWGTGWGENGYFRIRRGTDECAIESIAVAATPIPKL
In short: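 HL-60 cells (5×10^5 live cells/mL in PBS) were pre-incubated with compound in 0.5% DMSO for 60 min at 37 °C, 5% CO2, with shaking, then given 500 μM H-Gly-Phe-AFC solution for 30 min. Fluorescence was read at 400/505 nm. % inhibition was taken against vehicle wells, and IC50 came from a four-parameter logistic fit.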

Chain of human DPP1 enzyme (P53634 25-134): as the sequence (P53634 25-134) above
Chain of human DPP1 enzyme (P53634 231-394): as the sequence (P53634 231-394) above
Chain of human DPP1 enzyme (P53634 395-463): as the sequence (P53634 395-463) above

Structure (SMILES) | IC50 (human DPP1 enzyme) [nM] | IC50 (active mouse DPP1 enzyme) [nM] | IC50 (DPP1 in HL-60 cells) [nM]
CC(O)C(=O)N[C@H](C#N)Cc1ccc(-c2ccc3oc(=O)n(C)c3c2)cc1 (stereo partly shown) [Compound 242] | ≥ 15 | ≥ 20 | 
N#Cc1ccc(-c2ccc(C[C@@H](C#N)NC(=O)C3(N)CCOCC3)c(I)c2)cc1 [Compound 248, 4-amino-N-[(1S)-1-cyano-2-{4′-cyano-3-iodo-[1,1′-biphenyl]-4-yl}ethyl]oxane-4-carboxamide] | ≥ 15 | ≥ 20 | ≥ 2.5
C=CC[C@@H](N)CC(=O)N[C@H](C#N)Cc1ccc(-c2ccc3oc(=O)n(C)c3c2)cc1 [Compound 165, (3R)-3-amino-N-[(1S)-1-cyano-2-[4-(3-methyl-2-oxo-2,3-dihydro-1,3-benzoxazol-5-yl)phenyl]ethyl]hex-5-enamide] | ≥ 15 | ≥ 20 | ≥ 2.5
CCC(N)CC(=O)N[C@H](C#N)Cc1ccc(-c2ccc3oc(=O)n(C)c3c2)cc1 (stereo partly shown) [Compound 162] | ≥ 15 | ≥ 20 | 
Cn1c(=O)oc2ccc(-c3ccc(C[C@@H](C#N)NC(=O)COC(=O)c4cccs4)cc3)cc21 [Compound 245, (S)-2-((1-cyano-2-(4-(3-methyl-2-oxo-2,3-dihydrobenzo[d]oxazol-5-yl)phenyl)ethyl)amino)-2-oxoethyl thiophene-2-carboxylate] |  | ≥ 20 | 
Cn1c(=O)oc2ccc(-c3ccc(C[C@@H](C#N)NC(=O)C[C@H](N)Cc4ccccc4)cc3)cc21 [Compound 187] | ≥ 15 | ≥ 20 | 
CN(C)C[C@H](O)C(=O)N[C@H](C#N)Cc1ccc(-c2ccc3c(c2)C2(CN(C)C2)OC3=O)cc1 [Compound 137, (S)—N—((S)-1-cyano-2-(4-(1-methyl-3′-oxo-3′H-spiro[azetidine-3,1′-isobenzofuran]-6′-yl)phenyl)ethyl)-3-(dimethylamino)-2-hydroxypropanamide] | ≥ 15 | ≤ 5 | ≥ 2.5
Cn1c(=O)oc2ccc(-c3ccc(C[C@@H](C#N)NC(=O)CC(N)CCc4ccccc4)cc3)cc21 (stereo partly shown) [Compound 183] | ≥ 15 | ≥ 20 | 
Cn1c(=O)oc2ccc(-c3ccc(C[C@@H](C#N)NC(=O)CC(N)C(F)F)cc3)cc21 (stereo partly shown) [Compound 166] | ≥ 15 | ≥ 20 | 
Cn1c(=O)oc2ccc(-c3ccc(C[C@@H](C#N)NC(=O)CCOC(=O)c4cccs4)cc3)cc21 [Compound 244, 2-{[(1S)-1-cyano-2-[4-(3-methyl-2-oxo-1,3-benzoxazol-5-yl)phenyl]ethyl]carbamoyl}ethyl thiophene-2-carboxylate] |  | ≥ 20 | 
CN(C)C[C@H](O)C(=O)N[C@H](C#N)Cc1ccc(-c2ccc3oc(=O)n(CCN4CCOCC4)c3c2)cc1 [Compound 140, (2S)—N-[(1S)-1-cyano-2-(4-{3-[2-(morpholin-4-yl)ethyl]-2-oxo-1,3-benzoxazol-5-yl}phenyl)ethyl]-3-(dimethylamino)-2-hydroxypropanamide] | ≥ 15 | 5 to 20 | ≥ 2.5
C[C@H](O)[C@@](C)(N)C(=O)N[C@H](C#N)Cc1ccc(-c2ccc3oc(=O)n(C)c3c2)cc1 [Compound 171D, (2R,3S)-2-amino-N-[(1S)-1-cyano-2-[4-(3-methyl-2-oxo-1,3-benzoxazol-5-yl)phenyl]ethyl]-3-hydroxy-2-methylbutanamide] | 5 to 15 | 5 to 20 | ≥ 2.5
CN(C)C[C@H](O)C(=O)N[C@H](C#N)Cc1ccc(-c2ccc3oc(=O)n(C)c3c2)cc1 [Compound 101, (2S)—N-[(1S)-1-cyano-2-[4-(3-methyl-2-oxo-1,3-benzoxazol-5-yl)phenyl]ethyl]-3-(dimethylamino)-2-hydroxypropanamide] | ≥ 15 | 5 to 20 | 1 to 2.5
Cn1c(=O)oc2ccc(-c3ccc(C[C@@H](C#N)NC(=O)CC(N)Cc4ccccc4)cc3)cc21 (stereo partly drawn) [Compound 184, 3-amino-N-[(1S)-1-cyano-2-[4-(3-methyl-2-oxo-2,3-dihydro-1,3-benzoxazol-5-yl)phenyl]ethyl]-4-phenylbutanamide] | ≥ 15 | ≥ 20 | 
CN[C@@H](C)C(=O)N[C@H](C#N)Cc1ccc(-c2ccc3oc(=O)n(C)c3c2)cc1 [Compound 154] | ≥ 15 | ≥ 20 | 
CC(O)CNCC(=O)N[C@@H](C#N)Cc1ccc(-c2ccc3oc(=O)n(C)c3c2)cc1 (stereo partly shown) [compound 175] | ≥ 15 | 5 to 20 | 
Cn1c(=O)oc2ccc(-c3ccc(C[C@@H](C#N)NC(=O)C[C@@H](N)Cc4ccccc4)cc3)cc21 [Compound 186] | ≥ 15 | ≥ 20 | 
CC(C)C(N)CC(=O)N[C@H](C#N)Cc1ccc(-c2ccc3oc(=O)n(C)c3c2)cc1 (stereo partly drawn) [Compound 164, 3-amino-N-[(1S)-1-cyano-2-[4-(3-methyl-2-oxo-2,3-dihydro-1,3-benzoxazol-5-yl)phenyl]ethyl]-4-methylpentanamide] | ≥ 15 | ≥ 20 | ≥ 2.5

Structure (SMILES) | IC50 (human DPP1 enzyme) [nM] | IC50 (active mouse DPP1 enzyme) [nM] | IC50 (DPP1 in HL-60 cells) [nM]
Cn1c(=O)oc2ccc(-c3ccc(C[C@@H](C#N)NC(=O)C[C@@H](N)Cc4cccs4)cc3)cc21 [Compound 181] | ≥ 15 | ≥ 20 | 
Cn1c(=O)oc2ccc(-c3ccc(C[C@@H](C#N)NC(=O)CCNC(=O)c4cccs4)cc3)cc21 [Compound 238, N-[(1S)-1-cyano-2-[4-(3-methyl-2-oxo-1,3-benzoxazol-5-yl)phenyl]ethyl]-3-(thiophen-2-ylformamido)propanamide] | ≥ 15 | ≥ 20 | 
Cn1c(=O)oc2ccc(-c3ccc(C[C@@H](C#N)NC(=O)CCN)cc3)cc21 [Compound 157] | ≥ 15 | ≥ 20 | 
CN(C)C[C@H](O)C(=O)N[C@H](C#N)Cc1ccc(-c2ccc3oc(=O)n(C)c3c2)cc1F [Compound 138, (2S)—N-[(1S)-1-cyano-2-[2-fluoro-4-(3-methyl-2-oxo-1,3-benzoxazol-5-yl)phenyl]ethyl]-3-(dimethylamino)-2-hydroxypropanamide] | 5 to 15 | 5 to 20 | ≤ 1
Cn1c(=O)oc2ccc(-c3ccc(C[C@@H](C#N)NC(=O)CC(N)Cc4ccsc4)cc3)cc21 (stereo partly shown) [Compound 185] | ≥ 15 | ≥ 20 | 
CC(CN)C(=O)N[C@H](C#N)Cc1ccc(-c2ccc3oc(=O)n(C)c3c2)cc1 (stereo partly shown) [Compound 161] | ≥ 15 | ≥ 20 | 
Cn1c(=O)oc2ccc(-c3ccc(C[C@@H](C#N)NC(=O)CC(N)C(N)=O)cc3)cc21 (stereo partly shown) [Compound 159] | ≥ 15 | ≥ 20 | 
CN[C@H](C)C(=O)N[C@H](C#N)Cc1ccc(-c2ccc3oc(=O)n(C)c3c2)cc1 [Compound 152, (R)—N—((S)-1-cyano-2-(4-(3-methyl-2-oxo-2,3-dihydrobenzo[d]oxazol-5-yl)phenyl)ethyl)-2-(methylamino)propanamide] | ≥ 15 | ≥ 20 | 
Cn1c(=O)oc2ccc(-c3ccc(C[C@@H](C#N)NC(=O)CNC(=O)c4ccco4)cc3)cc21 [Compound 240, N-[(1S)-1-cyano-2-[4-(3-methyl-2-oxo-1,3-benzoxazol-5-yl)phenyl]ethyl]-2-(furan-2-ylformamido)acetamide] | ≥ 15 | ≥ 20 | 
Cn1c(=O)oc2ccc(-c3ccc(C[C@@H](C#N)NC(=O)CCC(N)=O)cc3)cc21 [Compound 153] | ≥ 15 | ≥ 20 | 
CC(N)CC(=O)N[C@H](C#N)Cc1ccc(-c2ccc3oc(=O)n(C)c3c2)cc1 (stereo partly shown) [Compound 160] | ≥ 15 | ≥ 20 | 
CNCCC(=O)N[C@H](C#N)Cc1ccc(-c2ccc3oc(=O)n(C)c3c2)cc1 [Compound 156] | ≥ 15 | ≥ 20 | 
C=CC[C@H](N)CC(=O)N[C@H](C#N)Cc1ccc(-c2ccc3oc(=O)n(C)c3c2)cc1 [Compound 163] | ≥ 15 | ≥ 20 | 
Cn1c(=O)oc2ccc(-c3ccc(C[C@@H](C#N)NC(=O)COC(=O)c4ccco4)cc3)cc21 [Compound 243, {[(1S)-1-cyano-2-[4-(3-methyl-2-oxo-1,3-benzoxazol-5-yl)phenyl]ethyl]carbamoyl}methyl furan-2-carboxylate] | ≥ 15 | ≥ 20 | 
CN(C)CC(=O)N[C@H](C#N)Cc1ccc(-c2ccc3oc(=O)n(C)c3c2)cc1 [Compound 158] | ≥ 15 | ≥ 20 | 
Cn1c(=O)oc2ccc(-c3ccc(C[C@@H](C#N)NC(=O)CCC#N)cc3)cc21 [Compound 241] | ≥ 15 | ≥ 20 | 
Cn1c(=O)oc2ccc(-c3ccc(C[C@@H](C#N)NC(=O)C(C)(C)CN)cc3)cc21 [Compound 155] | ≥ 15 | ≥ 20 | 

— patent publication US20260008758A1, “LINEAR DIPEPTIDYL PEPTIDASE 1 INHIBITORS AND USES THEREOF” (Insmed Incorporated, priority 2024, published 2026)
